Assay results as given in patent publication US7094809B2, “Method of treating subject infected with Neisseria gonorrhea” (Northeastern Ohio Universities College of Medicine, priority 2000, dated 2006).
Converted amounts (≈) assume the structure as drawn. Where two headings read alike, the source gives them in different places.

How the values were obtained:
[1] = system: HSV-1; assay: HSV-1 plaque assay, infected Vero cells, moi 1 (Example 3); format: cell-based; details: 50 μM, data not shown
Description: Cultures of African green monkey kidney cells (Vero) cells, obtained from the American Type Culture Collection, Rockville, Md. were grown to confluence in Medium 199 supplemented with 5% fetal bovine serum, 0.075% NaHCO3, and 50 μg/ml gentamycin sulfate in 25 cm^2 tissue culture flasks. Cells were infected with HSV-1 at a multiplicity of infection (moi) of one and incubated at room temperature for one hour to allow for virus attachment to and penetration of the cell. Under these conditions, approximately half of the cells are infected with virus. Thereafter, the cultures were rinsed three time with media and incubated in medium containing 50 μM or 75 μM 4, 4′-dihydroxytolan prepared in 0.2% dimethyl-sulfoxide (DMSO). Controls were treated identically, but were incubated without the dihyroxylated tolan. For purposes of comparison, HSV cell were also inoculated in the presence of 52.5 μM 4,4′-dihydroxystilbene. Due to the higher cell toxicity of the stilbene, cells were not incubated in the presence of 75 μM dihydroxystilbene.
Upon addition of the medium to the cultures and at 24 hours time periods thereafter, i.e., 0 hours, 24 hours, 48 hours, and 72 hours after addition of the drug, cells and medium were frozen at −70° C. Samples were then thawed, sonicated and titrated on Vero cells to determine the number of plaque forming units (pfu's) of virus produced by each culture.

[2] = system: Neisseria gonorrhea CDC 98; assay: Growth inhibition on chocolate agar plates; format: cell-based
Description: (§1) Various concentrations of the trihydroxytolan Tolan-10 were incorporated into chocolate agar plates that were prepared using standard procedures. The trihydroxylated tolan was first dissolved in DMSO and medium and then added to liquid chocolate agar, which was then poured into petri plates and allowed to solidify. The highest concentration of DMSO in the agar was 0.5%. Control plates containing chocolate agar and DMSO at a final concentration of 0.5% were also prepared.
Neisseria gonorrhea CDC 98 was obtained from Difco Laboratories. The authenticity of the bacterium was confirmed utilizing standard microbiological techniques of identification. Cultures of the bacterial isolate were inoculated onto fresh plates of solidified chocolate agar and then 24 hours later, a suspension was made from isolated colonies.
(§2) 10 μl aliquots of the suspension were spread evenly across the surface of solidified control chocolate agar lacking tolan and the surface of solidified chocolate agar containing Tolan-10 at final concentrations ranging from 1 to 125 μg/ml. Thereafter, the agar plates were incubated at 37° C. with or without 5% CO2. All plates were visually examined for growth of the bacterium 24 hours later to determine the concentration of the tri-hydroxylated tolan that inhibits growth by 50% (MIC50) as well as the concentration which inhibits any visible growth (MIC100).

[3] = system: Neisseria meningiditis; assay: Growth inhibition on agar plates; format: cell-based
Description: as §1, §2
(§3) The effect of the same concentrations of Tolan-10 on the growth of Escherichia coli, Staphylococcus aureus, Streptococcus pyogenes, Pseudomonas aeruginosa, Neisseria meningiditis and Candida albicans was also determined. […] The IC50 value of the tri-hydroxylated tolan for this bacterium at 24 hours of treatment was 50 μg/ ml and the IC100 value was 100 μg/ml. In contrast, Tolan 10, at the highest concentration tested, had no effect on the other microorganisms listed.

[4] = system: Streptococcus pyogenes; assay: Growth inhibition on agar plates; format: cell-based
Description: as §1, §2, §3

[5] = system: Pseudomonas aeruginosa; assay: Growth inhibition on agar plates; format: cell-based
Description: as §1, §2, §3

[6] = system: Staphylococcus aureus; assay: Growth inhibition on agar plates; format: cell-based
Description: as §1, §2, §3

[7] = system: Escherichia coli; assay: Growth inhibition on agar plates; format: cell-based
Description: as §1, §2, §3

[8] = system: Candida albicans; assay: Growth inhibition on agar plates; format: cell-based
Description: as §1, §2, §3

[9] = system: HSV-1; assay: Inhibition of HSV-1 replication in vitro, plaque assay (Example 9); format: cell-based; details: for HSV-1 production: Vero cells, moi 1, up to 72 hours
Description: Tissue culture cells were infected with HSV-1 and incubated in solutions containing Tolan-5, Tolan-10 and Tolan-11. The concentrations used ranged from one-half to three-quarters of the calculated CD50 for the respective tolan at 48 hours of treatment. Specifically, Vero cells were infected with HSV-1 at a multiplicity of infection of one for one hour. At the end of that time, the cultures were rinsed with media and fresh media containing various concentration of the respective tolan were added. Infected control cultures were incubated in media lacking hydroxylated tolan. At 1, 24, 48, and 72 hours after infection, samples were frozen at −70° C. until assayed for new virus production. Virus production was quantified by the plaque assay for each time point of infection. The results, which are expressed as plaque forming units per milliliter (pfu/ml).

[10] = system: Vero cells; assay: MTT colorimetric cell toxicity assay; format: cell-based, African green monkey
Description: Cell toxicity of the tolans 4,4′-dihydroxytolan (“Tolan-5”), 3,4′,5-trihydroxytolan (“Tolan-10”) and 4-hydroxy-4′-trifluoromethyltolan (“Tolan-11”) was determined using an MTT assay. In this assay, cells are exposed to MTT, 3-(4,5-dimethylthiazol-2-yl)-2,5-diphenyltetrazolium bromide, which is taken into the cells and reduced by mitochondrial dehydrogenase to a purple formazan, a large molecule which is unable to pass through intact cell membranes, and therefore accumulates in healthy cells. The ability of cells to reduce MTT is an indication of mitochondrial integrity and activity, which may be interpreted as a measure of viability. Solubilization of the cells results in the liberation of the product which can readily be detected spectrophotometrically.
Various concentrations of Tolan-5, Tolan-10 and Tolan-11 were added to 96 well tissue culture plates that had been seeded with Vero cells. The plates were then incubated at 37° C. in 5% CO2/95% air for 24, 48 and 72 hours. At the end of each time point, 50 μl of MTT (1 mg/ml) was added to the tissue culture plates which were then incubated for an additional four hours. At the end of that time, dimethyl sulfoxide (DMSO) was added to dissolve the cells and formazan, and the plates were read spectrophotometrically at 540 nm. […] Presented in Table I below are the toxicity results for Tolan-5, Tolan-10, and Tolan-11 measured at 24, 48 and 72 hours of treatment.

[11] = system: HSV-1; assay: HSV-1 skin scratch infection in hairless mice, topical treatment (Example 10); format: in vivo, SKH-1 hairless mice; details: for severity of HSV lesions: topical, three times a day for five days, versus untreated or DMSO only; for animals that perished within 11 days after infection: controls 50% died
Description: Female SKH-1 hairless mice 4–5 weeks old were lightly anesthetized and a scratch approximately 2–3 mm long and 0.25 mm deep was made on the lateral dorsal aspect of the neck. The scratch was infected with 10^6 plaque forming units of HSV-1. One hour later, the infected scratch area was treated with a 5% or 10% solution of Tolan-10 in DMSO. This treatment was repeated three times a day for five days. There were at least six mice in each treatment group. Untreated mice and mice treated with DMSO only were used as controls. Beginning on day 1 and continuing for 10–11 days, the scratch site was examined daily for evidence of an HSV infection and scored according to the following schedule: • 0=no visible change on skin by scratch • 1+=papules around scratch • 2+=papules around scratch ulcerate with scab formation • 3+=ulcerative zosterform spread along peripheral nerves to flank of animal • 4+=ulcerative lesions open on flank • 5+=death/sacrifice The data was grouped according to treatment and statistically analyzed for significance.

`Oc1ccc(C=Cc2ccc(O)cc2)cc1` [4,4′-dihydroxystilbene, reference compound] was tested, and the “effect on virus production” value [1] was “no effect”.
For `Oc1ccc(C#Cc2cc(O)cc(O)c2)cc1` [Tolan-10, 3,4′,5-trihydroxytolan], the IC100 value ([2]; 24 hours of treatment) was 100 µg/mL, the IC100 ([2]; N. gonorrhoeae, agar, 24 hours) was 100 mg/L and the IC50 ([2]; N. gonorrhoeae, agar, 24 hours, read-out: IC50) was 50 µg/mL (≈ 221 µM). For the same compound, the IC50 ([2]; Neisseria, CDC98, 24 hours of treatment, read-out: IC50 value) was 50 µg/mL (≈ 221 µM), the “selectivity of growth inhibition” value ([2]; versus the other microorganisms tested) was “selectively inhibited” and the IC50 ([3]; Neisseria, N. meningitides) was over 125 µg/mL. For the same compound, the effect on growth ([3]; highest concentration tested) was “no effect”, the IC100 ([4]; S. pyogenes) was over 125 mg/L and the IC50 ([4]; Streptococcus pyogenes, S. pyogenes) was over 125 µg/mL. The effect on growth ([4]; highest concentration tested) was “no effect”, the IC100 ([5]; P. aeruginosa) was over 125 mg/L and the IC50 ([5]; Pseudomonas aeruginosa, P. aeruginosa) was over 125 µg/mL. For the same compound, the effect on growth ([5]; highest concentration tested) was “no effect”, the IC100 ([6]; S. aureus) was over 125 mg/L and the IC50 ([6]; Staphylococcus aureus, S. aureus) was over 125 µg/mL. For the same compound, the effect on growth ([6]; highest concentration tested) was “no effect”, the IC100 ([7]; E. coli) was over 125 mg/L and the IC50 ([7]; Escherichia coli, E. coli) was over 125 µg/mL. The effect on growth ([7]; highest concentration tested) was “no effect”, the IC100 ([8]; C. albicans) was over 125 mg/L and the IC50 ([8]; Candida albicans, C. albicans) was over 125 µg/mL. The effect on growth ([8]; highest concentration tested) was “no effect”, the “effectiveness against the virus over concentrations” value ([9]; 350 μm to 175 μm) was “equally effective against the virus at all concentrations” and the HSV-1 production [9] was “inhibited HSV-1 production”. For the same compound, the “toxicity (in words)” value [10] was “very little toxicity”, the CD50 ([10]; 24 hours) was over 200 µM and the CD50 ([10]; 48 hours) was over 200 µM. For the same compound, the CD50 ([10]; 72 hours) was over 200 µM, the “estimated CD50” value ([10]; summary of Table 1) was over 200 μm and the “severity of HSV lesions” value ([11]; 5% solution in DMSO) was “significantly reduced the severity of HSV lesions”. For the same compound, the “animals that perished within 11 days after infection” value ([11]; 5%) was “none”, the “severity of HSV lesions” value ([11]; 10% solution in DMSO) was “significantly reduced the severity of HSV lesions” and the “animals that perished within 11 days after infection” value ([11]; 10%) was “none”. The “effectiveness of 10% compared with 5%” value ([11]; particularly days 6–10, not significantly different) was “slightly more effective than 5% Tolan-10”.
In the case of `Oc1ccc(C#Cc2ccc(C(F)(F)F)cc2)cc1` [Tolan-11, 4-hydroxy-4′-trifluoromethyltolan], the HSV-1 production [9] is reported as “inhibited HSV-1 production”, the “effect on HSV-1 production” value ([9]; concentration of less than 48 μm) is reported as “little to no effect” and the “toxicity (in words)” value [10] is reported as “more toxic than the other hydroxylated tolans”. It also gave a CD50 ([10]; 24 hours) of 72.1 µM, a CD50 ([10]; 48 hours) of 48.2 µM and a CD50 ([10]; 72 hours) of 47.1 µM.
